Test results from US11839689B2, “Formulations of enzalutamide” (Astellas Pharma Inc., priority 2012, dated 2023).

Assays:
Format in all cases: physicochemical
[1] = SEM particle morphology before and after 1 day at 50° C./75% RH; conditions: after 1 day exposure to 50° C./75% RH
Experimental: Scanning electron micrographs (SEMs) were obtained for samples before and after 1 day exposure to a 50° C./75% RH environment. After exposure of these samples to this challenging storage environment, no crystals were seen, indicative of the ability of these samples to maintain the amorphous character of enzalutamide. […] Thus these three embodiments would require controlled storage conditions to maintain their efficacy.

[2] = Microcentrifuge dissolution test in Model Fasted Duodenal Solution; conditions: for Enzalutamide Concentration, 0 min / Enzalutamide Concentration, 4 min / Enzalutamide Concentration, 10 min / Enzalutamide Concentration, 20 min / Enzalutamide Concentration, 40 min / Enzalutamide Concentration, 90 min / Enzalutamide Concentration, 1200 min: MFDS pH 6.5; for Enzalutamide Concentration, 0 min / Enzalutamide Concentration, 4 min / Enzalutamide Concentration, 10 min / Enzalutamide Concentration, 20 min / Enzalutamide Concentration, 40 min / Enzalutamide Concentration, 90 min / Enzalutamide Concentration, 1200 min / AUC90 (area under the curve at 90 minutes) / Cmax, 90 (maximum drug concentration through 90 minutes): dose 200 μg/ml; for AUC90 (area under the curve at 90 minutes) / Cmax, 90 (maximum drug concentration through 90 minutes): Table 4.2, MFDS
Description: The in vitro dissolution test to evaluate enhanced drug concentration in aqueous solution can be conducted by (1) adding with agitation a sufficient quantity of control composition, that is, the crystalline enzalutamide alone, to the in vitro test medium, typically MFD or PBS solution, to determine the maximum concentration of the enzalutamide achieved under the conditions of the test; (2) adding with agitation a sufficient quantity of test composition (e.g., the enzalutamide and polymer) in an equivalent test medium, such that if all the enzalutamide dissolved, the theoretical concentration of enzalutamide would exceed the observed maximum concentration of enzalutamide by a factor of about 20; and (3) comparing the measured MDC and/or aqueous concentration versus time AUC90 of the test composition in the test medium with the maximum concentration, and/or the aqueous concentration versus time AUC90 of the control composition. In conducting such a dissolution test, the amount of test composition or control composition used is an amount such that if all of the enzalutamide dissolved, the test enzalutamide concentration would be at least about 20-fold that of the control enzalutamide concentration.
The concentration of dissolved enzalutamide is typically measured as a function of time by sampling the test medium and plotting enzalutamide concentration in the test medium vs. time so that the MDC can be ascertained. The MDC is taken to be the maximum value of dissolved enzalutamide measured over the duration of the test. The enzalutamide concentration versus time AUC90 is calculated by integrating the concentration versus time curve over any 90-minute time period between the time of introduction of the composition into the aqueous use environment (time equals zero) and 270 minutes following introduction to the use environment (time equals 270 minutes). Typically, when the composition reaches its MDC rapidly, in less than about 30 minutes, the time interval used to calculate AUC90 is from time equals zero to time equals 90 minutes. However, if the AUC90 over any 90-minute time period described above of a composition meets the criteria of compositions described herein, then the composition is included in compositions of this disclosure. The time period 270 min is chosen because of its physiological relevance. Drug absorption in mammals generally occurs in the small intestine, and the small intestinal transit time in humans is approximately 4.5 hr, or 270 min.
To avoid large enzalutamide particulates which would give an erroneous determination, the test solution is either filtered or centrifuged. “Dissolved enzalutamide” is typically taken as that material that either passes a 0.45 micron syringe filter or, alternatively, the material that remains in the supernatant following centrifugation. Filtration can be conducted using a 13 mm, 0.45 micron polyvinylidine difluoride syringe filter, such as the filter sold by Scientific Resources under the trademark TITAN′. Centrifugation is typically carried out in a polypropylene microcentrifuge tube by centrifuging at 13,000 G for 60 seconds. Other similar filtration or centrifugation methods can be employed and useful results obtained. For example, using other types of microfilters may yield values somewhat higher or lower (+/−10-40%) than that obtained with the filter specified above but will still allow identification of dispersions. It is recognized that this definition of “dissolved enzalutamide” encompasses not only monomeric solvated enzalutamide molecules but also a wide range of species such as polymer/enzalutamide assemblies that have submicron dimensions such as enzalutamide aggregates, aggregates of mixtures of polymer and enzalutamide, micelles, polymeric micelles, colloidal particles, polymer/enzalutamide complexes, and other such enzalutamide-containing species that are present in the filtrate or supernatant in the specified dissolution test. […]

[3] = Membrane-permeation (MP) dissolution test
Experimental: The membrane permeability test described in the Examples below is carried out as follows. A drug-permeable membrane is placed between feed and permeate reservoirs. A sufficient quantity of test composition is added to a feed test medium and placed in the feed reservoir, while a water immiscible organic solution, such as a 60/40 mixture of decanol/decane, is placed in the permeate reservoir. Samples are removed from the permeate reservoir and analyzed for the concentration of drug as a function of time. […] Further details of this membrane permeation test are disclosed in U.S. Pat. No. 7,611,630 B2.
The MP-dissolution test, whose details are described above, measures a capability of low solubility drug formulations which is not measured in the microcentrifuge dissolution test utilized in Examples 4 and 7. This test mimics an aspect of the in vivo situation in the GI tract. In the in vivo situation, it is generally accepted that free drug in solution (i.e. individual drug molecules dissolved in the GI medium without association with formulation components) is the species which is absorbed across the gastrointestinal wall into the bloodstream. As free drug is absorbed, the formulation must be capable of supplying more free drug for absorption. The membrane permeation test measures the amount of drug which crosses a polymeric membrane (as a model of the GI wall) over time, and thus reflects the ability of the formulation to resupply free drug in solution to be further passively transported across the polymeric membrane. In Table 8.1 below, Maximum Flux is the maximum observed rate of permeation across the polymeric membrane, based on the slope of the absorption curve over any period within the 240 minute duration of the experiment, normalized for membrane area. Total drug recovery is the % of the initial drug dose which has crossed the membrane when the test ended at 240 minutes.
The membrane permeation test was carried out for 60% A enzalutamide SDDs with HPMCAS-M, HPMC E3 Prem, HPMCP-55, and Eudragit-L100, as described in Example 8.

[4] = Microcentrifuge dissolution test after suspension in 0.5% methylcellulose for 2 hours
Experimental: Drugs and drug formulations are sometimes dosed as aqueous suspensions, particularly for pediatric patients. The ability of various enzalutamide SDDs to retain their ability to maintain drug supersaturation in vitro was assessed by using the microcentrifuge dissolution test to measure drug dissolution after suspension in 0.5% methylcellulose in water for 2 hours. Methylcellulose is a standard viscosifying suspending agent which is used to maintain drug particles in suspension in oral suspension dosage forms. The table below presents in vitro dissolution performance before and after suspension in 0.5% methylcellulose.

[5] = Glass transition temperature by modulated DSC as a function of relative humidity
Experimental: Below Tg, an amorphous material is said to be in a “glassy” state in which molecular mobility is severely restricted. […] Glass transition temperatures Tg were determined for amorphous enzalutamide, and for spray-dried dispersions (SDDs) of enzalutamide with HPMCAS-M or PVP-VA64, at <5% and 75% relative humidity (RH). Tgs were determined by modulated differential scanning calorimetry (mDSC), utilizing the following protocol. Samples (about 5 mg) were equilibrated at the desired RH overnight in an environmental chamber at ambient temperature. The samples were then loaded into pans and sealed inside the environmental chamber. The samples were analyzed on a Q1000 mDSC (TA Instruments, New Castle, Delaware). Samples were typically scanned over the temperature range of −40° C. to 180° C., at a scan rate of 2.5° C./min, and a modulation rate of ±1.5° C./min. The data sampling interval was 0.20 sec/point. The Tg was calculated based on half height.

[6] = Table 8.1, within 240 minutes, normalized for membrane area
[7] = 0 hr, before suspension in aqueous 0.5% methylcellulose
[8] = 2 hr, after suspension for 2 hr in aqueous 0.5% methylcellulose

With CNC(=O)c1ccc(N2C(=S)N(c3ccc(C#N)c(C(F)(F)F)c3)C(=O)C2(C)C)cc1F [Amorphous (spray-dried) enzalutamide - BREC-0035-09B(V)] the “fusion of particles to larger particles by SEM after storage challenge” value [1] was “fusion of particles to form larger particles”, the “Enzalutamide Concentration, 0 min” value ([2]; 0 min) was 0.0 µg/mL and the “Enzalutamide Concentration, 4 min” value ([2]; 4 min) was 61 µg/mL. For the same compound, the “Enzalutamide Concentration, 10 min” value ([2]; 10 min) was 100 µg/mL, the “Enzalutamide Concentration, 20 min” value ([2]; 20 min) was 100 µg/mL and the “Enzalutamide Concentration, 40 min” value ([2]; 40 min) was 110 µg/mL. For the same compound, the “Enzalutamide Concentration, 90 min” value ([2]; 90 min) was 120 µg/mL, the “Enzalutamide Concentration, 1200 min” value ([2]; 1200 min) was 30 µg/mL and the “AUC90 (area under the curve at 90 minutes)” value [2] was 9,500 min*μg/mL. The “Cmax, 90 (maximum drug concentration through 90 minutes)” value [2] was 120 µg/mL, the “Maximum Flux” value [3, 6] was 1.3 μg/cm^2 × min and the AUC90 [4, 7] was 8,900 min · mcg/ml. For the same compound, the “Cmax 90” value [4, 7] was 110 µg/mL, the AUC90 [4, 8] was 8,800 min · mcg/ml and the “Cmax 90” value [4, 8] was 100 µg/mL. The Tg ([5]; 75% RH) was 64.0 °C and the Tg ([5]; <5% RH) was 88.5 °C.

With CNC(=O)c1ccc(N2C(=S)N(c3ccc(C#N)c(C(F)(F)F)c3)C(=O)C2(C)C)cc1F [Crystalline enzalutamide (Control 1)] the “Enzalutamide Concentration, 0 min” value ([2]; 0 min) was 0.0 µg/mL, the “Enzalutamide Concentration, 4 min” value ([2]; 4 min) was 1 µg/mL and the “Enzalutamide Concentration, 10 min” value ([2]; 10 min) was 3 µg/mL. The “Enzalutamide Concentration, 20 min” value ([2]; 20 min) was 5 µg/mL, the “Enzalutamide Concentration, 40 min” value ([2]; 40 min) was 6 µg/mL and the “Enzalutamide Concentration, 90 min” value ([2]; 90 min) was 7 µg/mL. For the same compound, the “Enzalutamide Concentration, 1200 min” value ([2]; 1200 min) was 9 µg/mL, the “AUC90 (area under the curve at 90 minutes)” value [2] was 500 µg·min/mL and the “Cmax, 90 (maximum drug concentration through 90 minutes)” value [2] was 7 µg/mL. For the same compound, the “In vitro dissolution, Average, 0 min” value ([2]; Table 9.1, 0 min) was 0.32 µg/mL, the “In vitro dissolution, Average, 4 min” value ([2]; Table 9.1, 4 min) was 5.23 µg/mL and the “In vitro dissolution, Average, 10 min” value ([2]; Table 9.1, 10 min) was 8.04 µg/mL. For the same compound, the “In vitro dissolution, Average, 20 min” value ([2]; Table 9.1, 20 min) was 7.69 µg/mL, the “In vitro dissolution, Average, 40 min” value ([2]; Table 9.1, 40 min) was 8.65 µg/mL and the “In vitro dissolution, Average, 90 min” value ([2]; Table 9.1, 90 min) was 9.14 µg/mL. The “In vitro dissolution, Average, 1200 min” value ([2]; Table 9.1, 1200 min) was 12.12 µg/mL, the AUC90 min ([2]; Table 9.2) was 740 µg·min/mL and the “Cmax, 90 min” value ([2]; Table 9.2) was 10 µg/mL. For the same compound, the “Maximum Flux” value [3, 6] was 0.4 μg/cm^2 × min and the “Maximum Flux” value ([3]; Table 9.3) was 0.4 μg/cm^2-min.
